The values that follow are results of earlier work, collected in patent US7208615B2, “Triple mineral salts of (-)-hydroxycitric acid and processes for preparing the same” (Laila Impex, priority 2004, dated 2007).

For data set [1] the following is noted: background art (US 5,783,603).
The conditions of data set [2]: background art; forms lactone, liquid form unstable during storage.

Regarding potassium salt of HCA, the hygroscopicity result in data set [1] was “hygroscopic”.
Take `O=C(O)CC(O)(C(=O)O)C(O)C(=O)O` (single isomer, unassigned; (-)) [(−)-hydroxycitric acid]: the “stability of free acid form” value in data set [2] is “unstable”.
